Experimental data from patent US11667602B2, “Compounds and their use” (AstraZeneca AB, priority 2020, dated 2023).
In brackets after ≈: the same amount, converted by molar mass. Read-outs that look alike come from different tables or passages of the source.

Legend:
[1] = Human Liver Microsomal Stability (Test C); format: in vitro ADME; conditions: human, liver microsomes
Experimental: Human Liver Microsomal Stability (Test C)
The assay was conducted according to the Human Liver Microsome Stability Assay described in pages 170-174 of Wernevik, J. et al., “A Fully Integrated Assay Panel for Early Drug Metabolism and Pharmacokinetics Profiling”, Assay and Drug Development Technologies, 2020, 18(4), 157-179. Data are reported in Table 36 as CLint (μl/min/mg protein). Where the assay was run multiple times for the same compound, the arithmetic mean is reported.

[2] = Rat Hepatocyte Stability (Test E); format: in vitro ADME; conditions: rat, hepatocytes, geometric mean if run multiple times
Experimental: Rat Hepatocyte Stability (Test E)
The assay was conducted according to the Rat Hepatocyte Stability Assay described in pages 170-174 of Wernevik, J. et al., “A Fully Integrated Assay Panel for Early Drug Metabolism and Pharmacokinetics Profiling”, Assay and Drug Development Technologies, 2020, 18(4), 157-179. Data are reported in Table 36 as mean Clint(μl/min/10^6 cells). Where the assay was run multiple times for the same compound, the geometric mean is reported.

Solubility (Test F) = format: physicochemical; conditions: arithmetic mean if run multiple times
Experimental: The assay was conducted according to the Solubility Assay described in pages 164-167 of Wernevik, J. et al., “A Fully Integrated Assay Panel for Early Drug Metabolism and Pharmacokinetics Profiling”, Assay and Drug Development Technologies, 2020, 18(4), 157-179. Data are reported in Table 36 as solubility ([…]. Where the assay was run multiple times for the same compound, the arithmetic mean is reported.

human RXFP1 = target: T1, human RXFP1 (Homo sapiens, UniProt Q9HBX9); assay: RXFP1 Hu cAMP (Test A); format: cell-based; design: expressed in transfected cells; host or cells: Jump-In T-REx CHO-K1 cells (ThermoFisher), induced with 10 ng/ml doxycycline for 24 h
T1 sequence (Q9HBX9 1-757): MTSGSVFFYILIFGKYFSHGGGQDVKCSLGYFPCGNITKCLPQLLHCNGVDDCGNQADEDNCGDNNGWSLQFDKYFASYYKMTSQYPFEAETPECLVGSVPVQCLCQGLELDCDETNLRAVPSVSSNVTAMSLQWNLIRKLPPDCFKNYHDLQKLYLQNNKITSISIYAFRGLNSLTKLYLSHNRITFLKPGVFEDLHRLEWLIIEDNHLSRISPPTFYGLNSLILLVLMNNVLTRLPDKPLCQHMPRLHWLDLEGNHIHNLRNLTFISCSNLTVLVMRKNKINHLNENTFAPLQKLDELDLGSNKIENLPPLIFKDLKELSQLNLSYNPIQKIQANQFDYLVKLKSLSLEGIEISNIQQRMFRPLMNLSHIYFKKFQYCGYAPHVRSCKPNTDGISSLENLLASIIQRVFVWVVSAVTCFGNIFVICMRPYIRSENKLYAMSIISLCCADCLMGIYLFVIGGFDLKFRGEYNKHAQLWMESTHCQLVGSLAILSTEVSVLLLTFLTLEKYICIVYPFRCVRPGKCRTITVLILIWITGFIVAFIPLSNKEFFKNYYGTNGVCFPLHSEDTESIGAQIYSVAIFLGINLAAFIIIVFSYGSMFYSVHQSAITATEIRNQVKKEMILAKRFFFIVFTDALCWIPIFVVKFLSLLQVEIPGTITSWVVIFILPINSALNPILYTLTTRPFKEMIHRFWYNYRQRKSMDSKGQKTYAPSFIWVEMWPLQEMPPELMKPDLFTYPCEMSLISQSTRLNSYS
Procedure, shortened: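 Read-out is HTRF signal, inversely proportional to cAMP, converted to cAMP amount by standard curve. Stimulation occurred in inducible CHO-K1 cells expressing the human receptor with phosphodiesterases blocked by 0.5 mM IBMX.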

[3] = Human Plasma Protein Binding (Test B); format: in vitro ADME; conditions: fraction unbound (fu)
Experimental: Human Plasma Protein Binding (Test B)
The assay was conducted according to the Human Plasma Protein Binding Assay described in pages 167-170 of Wernevik, J. et al., “A Fully Integrated Assay Panel for Early Drug Metabolism and Pharmacokinetics Profiling”, Assay and Drug Development Technologies, 2020, 18(4), 157-179. Data are reported in Table 36 as fraction unbound (fu) (% free). Where the assay was run multiple times for the same compound, the arithmetic mean is reported.

[4] = RXFP1 Hu cAMP, read-out: Test A EC50

Compound	microsomal CLint [1]	hepatocyte CLint [2]	solubility (Solubility (Test F))	EC50 (human RXFP1; [4])	Test B Human Plasma Protein Binding (% free) [3]	Test A Sinf (human RXFP1; RXFP1 Hu cAMP)	EC50 (human RXFP1; Test A EC50, RXFP1 Hu cAMP)
COc1cc(F)c(O[C@H]2CC[C@@](C)(C(=O)O)CC2)cc1C(=O)N[C@@H]1CCC[C@@H]1C(=O)N[C@@H](C)C1(C)CC1 (racemic) [Example 63]	11 µL/min/mg	19 µL/min/1e6 cells	610 µM (≈ 316 µg/mL)	> 50000 nM			
COc1cc(F)c(O[C@H]2CC[C@@](C)(C(=O)O)CC2)cc1C(=O)N[C@@H]1[C@H]2CC[C@H](C2)[C@@H]1C(=O)NCC1(C)CCC1 [Example 1, (1S,4s)-4-(2-Fluoro-4-methoxy-5-(((1S,2R,3S,4R)-3-(((1-methylcyclobutyl)methyl)carbamoyl)bicyclo[2.2.1]heptan-2-yl)carbamoyl)phenoxy)-1-methylcyclohexane-1-carboxylic acid]			> 500 µM		4.3 % free		
COc1cc(F)c(O[C@H]2CC[C@@](C)(C(=O)O)CC2)cc1C(=O)N[C@H]1[C@@H]2CC[C@@H](C2)[C@H]1C(=O)NCC1(C)CCC1 [Example 3, (1R,4s)-4-(2-Fluoro-4-methoxy-5-(((1R,2S,3R,4S)-3-(((1-methylcyclobutyl)methyl)carbamoyl)bicyclo[2.2.1]heptan-2-yl)carbamoyl)phenoxy)-1-methylcyclohexane-1-carboxylic acid]			860 µM (≈ 468 µg/mL)		3.7 % free		
CC1(CNC(=O)[C@H]2[C@@H]3CC[C@@H](C3)[C@H]2NC(=O)c2cc(O[C@H]3CC[C@@](C)(C(=O)O)CC3)c(F)cc2OCF)CCC1 [Example 4, (1S,4s)-4-(2-Fluoro-4-(fluoromethoxy)-5-(((1S,2R,3S,4R)-3-(((1-methylcyclobutyl)methyl)carbamoyl)bicyclo[2.2.1]heptan-2-yl)carbamoyl)phenoxy)-1-methylcyclohexane-1-carboxylic acid]	36 µL/min/mg	6.9 µL/min/1e6 cells	> 1000 µM			103%	4.7 nM
COc1cc(F)c(O[C@H]2CC[C@@H](C(=O)O)CC2)cc1C(=O)N[C@@H]1[C@H]2CC[C@H](C2)[C@@H]1C(=O)Nc1cc(C(F)(F)F)ccc1Cl [Example 26]	31 µL/min/mg	38 µL/min/1e6 cells	250 µM (≈ 157 µg/mL)	190 nM		105%	
COc1cc(F)c(O[C@H]2CC[C@@](C)(C(=O)O)CC2)cc1C(=O)N[C@@H]1[C@H]2CC[C@H](C2)[C@@H]1C(=O)N[C@@H](C)C(C)(C)C [Example 45]	15 µL/min/mg	12 µL/min/1e6 cells	960 µM (≈ 525 µg/mL)		6.9 % free		
COc1cc(F)c(O[C@H]2CC[C@@](C)(C(N)=O)CC2)cc1C(=O)N[C@@H]1[C@H]2CC[C@H](C2)[C@@H]1C(=O)NCC(C)(C)C [Example 53, (1R,2S,3R,4S)-3-(5-(((1s,4S)-4-Carbamoyl-4-methylcyclohexyl)oxy)-4-fluoro-2-methoxybenzamido)-N-neopentylbicyclo[2.2.1]heptane-2-carboxamide]	130 µL/min/mg	150 µL/min/1e6 cells	39 µM (≈ 20.7 µg/mL)	160 nM		122%	
COc1cc(F)c(O[C@H]2CC[C@@](C)(C(=O)O)CC2)cc1C(=O)N[C@@H]1CCC[C@@H]1C(=O)N[C@@H](C)C(C)C [Example 55, (1S,4s)-4-(2-Fluoro-4-methoxy-5-(((1R,2S)-2-(((S)-3-methylbutan-2-yl)carbamoyl)cyclopentyl)carbamoyl)phenoxy)-1-methylcyclohexane-1-carboxylic acid]	< 3 µL/min/mg	16 µL/min/1e6 cells	> 1000 µM	> 8400 nM		100%	
COc1cc(F)c(O[C@H]2CC[C@@](C)(C(=O)O)CC2)cc1C(=O)N[C@@H]1CCC[C@@H]1C(=O)NCC(C)(C)C [Example 57, (1S,4s)-4-(2-Fluoro-4-methoxy-5-(((1R,2S)-2-(neopentylcarbamoyl)cyclopentyl)carbamoyl)phenoxy)-1-methylcyclohexane-1-carboxylic acid]	4.9 µL/min/mg	11 µL/min/1e6 cells	> 1000 µM	660 nM		99%	
COc1cc(F)c(O[C@H]2CC[C@@](C)(C(=O)O)CC2)cc1C(=O)N[C@@H]1CCC[C@@H]1C(=O)N[C@H](C)C(C)C [Example 60]	7 µL/min/mg	11 µL/min/1e6 cells	> 1000 µM			105%	
COc1cc(F)c(O[C@H]2CC[C@@](C)(C(=O)O)CC2)cc1C(=O)N[C@@H]1CCC[C@@H]1C(=O)N[C@@H](C)C(C)(C)C [Example 61]	7.4 µL/min/mg	13 µL/min/1e6 cells	> 1000 µM	15000 nM		96%	
COc1cc(F)c(O[C@H]2CC[C@@](C)(C(=O)O)CC2)cc1C(=O)N[C@@H]1CCC[C@@H]1C(=O)NC(C(C)C)C(C)C [Example 62]	94 µL/min/mg	55 µL/min/1e6 cells	> 1000 µM	> 4200 nM		93%	
COc1cc(F)c(O[C@H]2CC[C@@](C)(C(=O)O)CC2)cc1C(=O)N[C@@H]1CCC[C@@H]1C(=O)NCC1(C)CCCCC1 [Example 64]	74 µL/min/mg	67 µL/min/1e6 cells	870 µM (≈ 476 µg/mL)			107%	
COc1cc(F)c(O[C@H]2CC[C@@](C)(C(=O)O)CC2)cc1C(=O)N[C@@H]1CCC[C@@H]1C(=O)NCC(C)C [Example 66]	< 3 µL/min/mg	12 µL/min/1e6 cells	> 1000 µM			101%	
COc1cc(F)c(-c2ccc(CCC(=O)O)cc2)cc1C(=O)N[C@@H]1[C@H]2CC[C@H](C2)[C@@H]1C(=O)Nc1cccc(S(=O)(=O)C(F)(F)F)c1 [Example 244]	53 µL/min/mg	36 µL/min/1e6 cells	240 µM (≈ 159 µg/mL)	100 nM		111%	
COc1cc(F)c(-c2ccc(C(=O)O)c(C)c2)cc1C(=O)N[C@@H]1[C@H]2CC[C@H](C2)[C@@H]1C(=O)Nc1cccc(S(=O)(=O)C(F)(F)F)c1 [Example 246]	20 µL/min/mg	16 µL/min/1e6 cells	860 µM (≈ 558 µg/mL)			85%	
